What was measured:
[1] = Stability of amorphous and crystalline form API at 60° C. (HPLC related substances); assay type: physicochemical
Protocol: The samples of amorphous and crystalline form API of Compound A were placed in clean containers and the environmental temperature was controlled at 60° C. The purity of amorphous (Compound A-Amp) and crystalline form (Compound A-Xln) of Compound A were tested at Day 0, Day 10 and Day 30. Samples of amorphous and crystalline form APIs were measured, and the appropriate amount of diluent was added to dissolve with sonication. The concentration was controlled at 0.2 mg/ml and the purification was determined by HPLC with UV detector at 230 nm. Results were listed in the table as follows and the fitted curve is in Drawing Sections as FIG. 6.

FGFR2(h) = FGFR2(h) (Homo sapiens, UniProt P21802); assay: Kinase inhibition; assay type: biochemical
Description: (§1) In vitro tyrosine kinase inhibition activities can be measured via commercial resources. Some of these tests can also be contracted with Eurofin or Reaction Biology for screening.
(§2) For the kinase inhibition tests, receptor tyrosine kinases are selected from FGFR1(h), FGFR2(h), FGFR3(h), Flt1(h) (VEGFr1), Flt4(h) (VEGFr3), KDR(h) (VEGFr2), Aurora-B, PDGFRα(h) and PDGFRβ(h).

FGFR3(h) = FGFR3(h) (Homo sapiens, UniProt P22607); assay: Kinase inhibition; assay type: biochemical
Description: as §1, §2

Flt4(h) (VEGFr3) = Flt4(h) (VEGFr3) (Homo sapiens, UniProt P35916); assay: Kinase inhibition; assay type: biochemical
Description: as §1, §2

A2780 = assay: In vitro MTT (proliferation) assay; assay type: cell-based; conditions: Homo sapiens, Ovary
HL-60 = assay: In vitro MTT (proliferation) assay; assay type: cell-based; conditions: Homo sapiens, Blood
SKBR3 = assay: In vitro MTT (proliferation) assay; assay type: cell-based; conditions: Homo sapiens, SK-BR-3, Breast
95-D = assay: In vitro MTT (proliferation) assay; assay type: cell-based; conditions: Lung
BEL-7402 = assay: In vitro MTT (proliferation) assay; assay type: cell-based; conditions: Homo sapiens, Liver
HepG2 = assay: In vitro MTT (proliferation) assay; assay type: cell-based; conditions: Homo sapiens, Liver
SMMC-7721 = assay: In vitro MTT (proliferation) assay; assay type: cell-based; conditions: Homo sapiens, Liver
786-O = assay: In vitro MTT (proliferation) assay; assay type: cell-based; conditions: Homo sapiens, 786-0, Kidney
[2] = test system: breast cancer cell line BT474; assay: Combination therapy MTT assay; assay type: cell-based, human; conditions: BT474, combined with aromatase inhibitors Anatrozole and Letrozole, 72 h
Protocol: (§3) Compound A-Xln combination therapy MTT assay results were investigated. 100 μl of cell suspension with a concentration of 5×10^4 cells/ml was added to each well of a 96-well plate, and place in a 37° C., 5% CO2 incubator. After 24 h, Compound A-Xln sample solution was added according to Table 13, 10 μl/well for double-duplicate wells. After 72 hours at 37° C. and 5% CO2 incubation, 20 μl of 5 mg/ml MTT solution was added to each well, then 100 µl/well of dissolving solution was added after 4 hours. The samples were put in an incubator, and a full-wavelength multifunctional enzyme label machine was used after dissolving. The OD value at 570 nm was measured.

[3] = test system: breast cancer cell line MCF7; assay: Combination therapy MTT assay; assay type: cell-based, human; conditions: MCF7, combined with aromatase inhibitors Anatrozole and Letrozole, 72 h
Protocol: as §3

[4] = test system: colon cancer cell line HCT116; assay: Combination therapy MTT assay; assay type: cell-based, human
Protocol: as §3
(§4) Samples according to Table 14 were also tested for proliferation inhibitor of three colon cancer lines HT29, HCT116 and colo205 by Compound A-Xln, anti-colon cancer agent 5FU/O, and combination of Compound A-Xln and 5FU/O. The results are shown in FIGS. 15-17.

[5] = test system: colon cancer cell line HT29; assay: Combination therapy MTT assay; assay type: cell-based, human
Protocol: as §3, §4

[6] = test system: colon cancer cell line colo205; assay: Combination therapy MTT assay; assay type: cell-based, human
Protocol: as §3, §4

[7] = high temperature 60° C., 10 days
[8] = high temperature 60° C., 30 days

Sequence of Flt4(h) (VEGFr3) (P35916 25-1363): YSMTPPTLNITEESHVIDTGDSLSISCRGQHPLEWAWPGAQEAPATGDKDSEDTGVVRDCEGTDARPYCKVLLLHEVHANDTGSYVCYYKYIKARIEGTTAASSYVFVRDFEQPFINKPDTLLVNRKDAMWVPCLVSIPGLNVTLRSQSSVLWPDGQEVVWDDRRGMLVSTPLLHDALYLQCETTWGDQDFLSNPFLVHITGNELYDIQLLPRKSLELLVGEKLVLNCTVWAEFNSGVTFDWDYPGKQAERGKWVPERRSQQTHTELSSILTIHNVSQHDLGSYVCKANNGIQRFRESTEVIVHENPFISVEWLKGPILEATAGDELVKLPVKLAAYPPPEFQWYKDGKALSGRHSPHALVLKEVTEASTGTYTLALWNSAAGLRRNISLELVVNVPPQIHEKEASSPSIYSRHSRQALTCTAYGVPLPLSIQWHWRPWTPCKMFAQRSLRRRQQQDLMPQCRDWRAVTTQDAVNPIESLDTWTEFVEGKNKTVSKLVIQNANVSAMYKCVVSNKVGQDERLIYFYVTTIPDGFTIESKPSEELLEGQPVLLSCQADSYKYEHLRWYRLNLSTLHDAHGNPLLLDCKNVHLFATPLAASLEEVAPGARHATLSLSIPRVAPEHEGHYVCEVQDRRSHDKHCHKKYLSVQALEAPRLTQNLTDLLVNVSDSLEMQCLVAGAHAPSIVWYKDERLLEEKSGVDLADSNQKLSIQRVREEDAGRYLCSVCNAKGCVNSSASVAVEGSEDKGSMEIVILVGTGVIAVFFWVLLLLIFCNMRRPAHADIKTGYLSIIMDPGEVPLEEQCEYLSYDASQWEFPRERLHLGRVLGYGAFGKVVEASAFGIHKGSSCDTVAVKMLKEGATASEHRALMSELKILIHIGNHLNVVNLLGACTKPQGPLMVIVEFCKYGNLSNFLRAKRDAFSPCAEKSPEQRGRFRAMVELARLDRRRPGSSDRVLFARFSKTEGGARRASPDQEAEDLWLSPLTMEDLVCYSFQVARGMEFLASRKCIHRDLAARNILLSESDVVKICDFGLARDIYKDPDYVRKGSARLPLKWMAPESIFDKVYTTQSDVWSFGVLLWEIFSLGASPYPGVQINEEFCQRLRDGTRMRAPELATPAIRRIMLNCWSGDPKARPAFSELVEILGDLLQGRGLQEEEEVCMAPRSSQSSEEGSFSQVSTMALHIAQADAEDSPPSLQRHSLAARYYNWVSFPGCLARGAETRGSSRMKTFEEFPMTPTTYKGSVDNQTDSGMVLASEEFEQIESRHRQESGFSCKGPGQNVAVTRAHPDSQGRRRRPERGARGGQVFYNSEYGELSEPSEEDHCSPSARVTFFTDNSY
Sequence of FGFR2(h) (P21802 22-821): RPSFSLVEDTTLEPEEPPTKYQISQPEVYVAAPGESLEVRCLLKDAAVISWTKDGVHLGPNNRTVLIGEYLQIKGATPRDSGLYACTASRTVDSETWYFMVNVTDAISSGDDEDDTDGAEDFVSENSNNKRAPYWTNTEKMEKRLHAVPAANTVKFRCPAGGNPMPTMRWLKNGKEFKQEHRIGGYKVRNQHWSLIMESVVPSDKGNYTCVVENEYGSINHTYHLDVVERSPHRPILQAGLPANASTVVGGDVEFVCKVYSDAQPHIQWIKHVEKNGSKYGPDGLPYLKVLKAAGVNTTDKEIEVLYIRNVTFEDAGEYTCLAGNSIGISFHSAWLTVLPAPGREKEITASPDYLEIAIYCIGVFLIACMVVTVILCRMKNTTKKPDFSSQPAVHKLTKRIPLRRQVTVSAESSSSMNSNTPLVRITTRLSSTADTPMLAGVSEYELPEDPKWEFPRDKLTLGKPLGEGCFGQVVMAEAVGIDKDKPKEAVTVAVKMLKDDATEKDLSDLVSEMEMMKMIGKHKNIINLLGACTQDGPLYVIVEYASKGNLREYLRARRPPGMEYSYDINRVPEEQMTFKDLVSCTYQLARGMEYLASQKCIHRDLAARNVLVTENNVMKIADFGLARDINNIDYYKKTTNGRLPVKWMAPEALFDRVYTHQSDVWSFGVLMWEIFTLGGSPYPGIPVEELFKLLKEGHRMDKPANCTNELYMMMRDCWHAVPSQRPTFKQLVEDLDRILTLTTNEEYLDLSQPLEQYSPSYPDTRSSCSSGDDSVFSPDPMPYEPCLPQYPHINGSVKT
Sequence of FGFR3(h) (P22607 23-806): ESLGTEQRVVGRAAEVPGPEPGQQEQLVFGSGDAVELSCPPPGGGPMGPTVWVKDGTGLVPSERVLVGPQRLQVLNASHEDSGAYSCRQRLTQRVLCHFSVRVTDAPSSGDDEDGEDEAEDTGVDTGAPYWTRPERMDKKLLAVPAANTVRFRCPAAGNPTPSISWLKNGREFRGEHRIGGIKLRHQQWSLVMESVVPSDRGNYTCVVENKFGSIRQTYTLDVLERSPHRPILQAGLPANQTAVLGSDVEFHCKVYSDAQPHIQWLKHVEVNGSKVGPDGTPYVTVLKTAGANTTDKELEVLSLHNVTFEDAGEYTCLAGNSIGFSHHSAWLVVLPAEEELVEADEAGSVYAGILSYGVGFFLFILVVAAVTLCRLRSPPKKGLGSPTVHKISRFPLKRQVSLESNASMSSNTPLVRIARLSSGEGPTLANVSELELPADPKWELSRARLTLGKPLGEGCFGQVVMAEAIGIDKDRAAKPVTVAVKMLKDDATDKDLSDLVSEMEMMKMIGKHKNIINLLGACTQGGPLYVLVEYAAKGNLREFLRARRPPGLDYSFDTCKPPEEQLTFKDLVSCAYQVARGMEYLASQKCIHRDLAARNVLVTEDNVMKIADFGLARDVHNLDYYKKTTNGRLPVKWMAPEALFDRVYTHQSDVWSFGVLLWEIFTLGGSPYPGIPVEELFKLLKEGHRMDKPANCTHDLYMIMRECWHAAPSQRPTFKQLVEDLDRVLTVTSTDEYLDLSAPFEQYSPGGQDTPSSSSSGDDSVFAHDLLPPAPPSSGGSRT

COc1cc2c(Oc3ccc4[nH]c(C)cc4c3F)ccnc2cc1OCCN1CC(O)C2(CC2)C1 (centres unmarked) [Compound A-Xln, 5-(2-(4-(4-fluoro-2-methyl-1H-indol-5-yloxy)-6-methoxyquinolin-7-yloxy)ethyl)-5-azaspiro[2.4]-heptan-7-ol]
Maximum impurities (%) ([1]; 0 day): 0.032% | Total impurities (%) ([1]; 0 day): 0.078% | Stability compared with the amorphous form ([1]; 60° C., up to 30 days): better stability than A-Amp | Maximum impurities (%) [1, 7]: 0.039% | Total impurities (%) [1, 7]: 0.115% | Maximum impurities (%) [1, 8]: 0.063% | Total impurities (%) [1, 8]: 0.194% | IC50 (FGFR2(h)): 8 nM | IC50 (FGFR3(h)): 6 nM | IC50 (Flt4(h) (VEGFr3)): 2 nM | IC50 (A2780): 2630 ± 270 nM | IC50 (HL-60): 1980 ± 1130 nM | IC50 (SKBR3): 12200 ± 2000 nM | IC50 (95-D): 4920 ± 2260 nM | IC50 (BEL-7402): 860 ± 150 nM | IC50 (HepG2): 9120 ± 3060 nM | IC50 (SMMC-7721): 8010 ± 2530 nM | IC50 (786-O): 10100 ± 3970 nM | Proliferation inhibition in combination [2]: increased | Proliferation inhibition in combination [3]: increased | Inhibition activity in sequential dosing ([4]; HCT116, Compound A-Xln and 5FU/O dosed Day 1/Day 2 in either order): higher activity on regimen of dosing chemotherapy agents first followed by dosing Compound A later | Proliferation inhibition in combination ([4]; HCT116, combined with 5FU/O): increased | Inhibition activity in sequential dosing ([5]; HT29, Compound A-Xln and 5FU/O dosed Day 1/Day 2 in either order): higher activity on regimen of dosing chemotherapy agents first followed by dosing Compound A later | Proliferation inhibition in combination ([5]; HT29, combined with 5FU/O): increased | Inhibition activity in sequential dosing ([6]; colo205, Compound A-Xln and 5FU/O dosed Day 1/Day 2 in either order): higher activity on regimen of dosing chemotherapy agents first followed by dosing Compound A later | Proliferation inhibition in combination ([6]; colo205, combined with 5FU/O): increased

— patent US20230399313A1, “BIOLOGICAL ACTIVITIES OF 5-(2-(4-(4-FLUORO-2-METHYL-1H-INDOL-5-YLOXY)-6-METHOXYQUINOLIN-7-YLOXY)ETHYL)-5-AZASPIRO[2.4]-HEPTAN-7-OL CRYSTALLINE, PHOSPHORIC ACID SALT AND ITS ENANTIOMERS” (Advenchen Pharmaceuticals, LLC, priority 2022, published 2023)
